Columns and labels:
MOLT4 = assay: cytotoxicity to cultured tumor cell line MOLT4; assay type: cell-based, human
Experimental: (§1) Cytotoxicity to various human tumor cell lines was examined as follows:
(§2) Cells of human cell lines, K562, MOLT4, U937 and HL60 were respectively suspended to the concentration of 4×10^5 cells/ml in the RPMI1640 culture medium supplemented with 20% FCS. Fifty μl of each suspension was added to each well of a 96-well microtest plate to which 50 μl of the test solution had been added. After culturing the suspension at 37° C. in an atmosphere of 5% carbon dioxide for 72 hours, the absorbancy at 570 nm was measured in the same way as with the colorimetry using MTT in Experiment Example 1, and the percent suppression was calculated by the following formula, which was used as an index of cytotoxicity.

[1] = cytotoxicity to cultured tumor cell line MOLT4; assay type: cell-based, human; details: human, molt4 cells, read-out: Suppression
Experimental: as §1, §2

[2] = system: IL-3 production in mouse allogenic MLC; assay: suppression of IL-3 production in mouse allogenic MLC; assay type: cell-based
Experimental: Mouse allogenic MLC was carried out as follows:
After termination of culture, the supernatant was collected and used as the supernatant of mouse allogenic MLC.

K562 = assay: cytotoxicity to cultured tumor cell line K562
Experimental: as §1, §2

[3] = cytotoxicity to cultured tumor cell line K562; details: human, k562 cells, Suppression
Experimental: as §1, §2

[4] = system: allo-reactive cytotoxic T cells in spleen of EL4-immunized BALB/c mice; assay: suppression of allo-reactive cytotoxic T cells induced by immunization of mouse with allogenic cells; assay type: in vivo
Experimental: Male 5- to 7-week-old BALB/c mice (H-2^d) were immunized with leukemia cell EL4 derived from C57BL/6 mice (H-2^b) (10^7 cells/mouse, intraperitoneal administration), and the test substance was administered intraperitoneally 5 times at the doses of 0.001 to 3 mg/kg/day or orally at the doses of 0.3 to 10 mg/kg/day from the day of immunization. Nine to ten days after immunization, the spleen was resected from the mice to prepare a single cell suspension and the suspension was used as effector cell suspension. The ^51 Cr-release assay was carried out in the same way as in Experiment Example 3, using EL4 cells as the target cells to measure the cytotoxic activity.
The activity of allo-reactive cytotoxic T cell is indicated by lytic unit (LU) per spleen. One lytic unit (LU) is defined as the number of effector cells required to cause 25% lysis of 5×10^3 target cells. At the same time, the body weight of mouse and number of spleen cells were also determined.

[5] = cytotoxicity to cultured tumor cell line HL60; details: human, hl60 cells, Suppression
[6] = system: allo-reactive cytotoxic T cell (EL4 target cells); assay: suppression of induction of allo-reactive cytotoxic T cell in mouse allogenic mixed lymphocyte culture (MLC), 51Cr release; assay type: cell-based
Experimental: The target cells used were leukemia cells EL4 from the syngenic (H-2^b) C57BL/6 mouse as used for preparation of the stimulator cells. By incubating 10^6 EL4 cells in the presence of 370 KBq of Na2^51 CrO4 at 37° C. for 1 hour, ^51 Cr was incorporated into the cytoplasm. The cells were washed, adjusted to the concentration of 10^4 cells/ml and used as the target cells.
For the assay of the cytotoxic activity, 100 μl of the effector cell suspension and 100 μl of the target cell suspension were added to a 96-well flat-bottomed microculture plate, and cultured at 37° C. for 4 hours. The amount of ^51 Cr released into the supernatant was determined and the cytotoxic activity was calculated by the following formula. [formula]
The activity of the cytotoxic T cell is expressed by LU (lytic unit) per 10^6 effector cells.

U937 = assay: cytotoxicity to cultured tumor cell line U937; assay type: cell-based, human
Experimental: as §1, §2

[7] = cytotoxicity to cultured tumor cell line U937; assay type: cell-based, human; details: human, u937 cells, read-out: Suppression
Experimental: as §1, §2

[8] = 0.01 mg/kg/day ip × 5, Table 9A
[9] = 0.03 mg/kg/day ip × 5, Table 9A

Compound: CCCCCCCCCCCCCCCC[C@@H](O)[C@H](O)[C@@](N)(CO)C(=O)O [Example 2]
- Absorbancy (MOLT4; 0.1 μg/ml): 1.144 ± 0.040
- Absorbancy (MOLT4; 1 μg/ml): 1.027 ± 0.009
- Absorbancy (MOLT4; 10 μg/ml): 1.045 ± 0.041
- cytotoxicity at 72 h ([1]; 0.1 μg/ml): 0.9%
- cytotoxicity at 72 h ([1]; 1 μg/ml): 11%
- cytotoxicity at 72 h ([1]; 10 μg/ml): 9.4%
- IL-3 activity ([2]; 0.0001 μg/ml): 42.8 U/ml
- IL-3 activity ([2]; 0.001 μg/ml): 45.3 U/ml
- IL-3 activity ([2]; 0.01 μg/ml): 42.2 U/ml
- IL-3 activity ([2]; 0.1 μg/ml): 23.6 U/ml
- IL-3 activity ([2]; 1 μg/ml): 11.0 U/ml
- inhibition at 0.0001 µg/mL ([2]; Mus musculus, 48 h, 0.0001 μg/ml): 16.3%
- inhibition at 0.001 µg/mL ([2]; Mus musculus, 48 h, 0.001 μg/ml): 9.9%
- inhibition at 0.01 µg/mL ([2]; Mus musculus, 48 h, 0.01 μg/ml): 17.9%
- inhibition at 0.1 µg/mL ([2]; Mus musculus, 48 h, 0.1 μg/ml): 65.3%
- inhibition at 1 µg/mL ([2]; Mus musculus, 48 h, 1 μg/ml): 97.4%
- Absorbancy (K562; 0.1 μg/ml): 1.128 ± 0.025
- Absorbancy (K562; 1 μg/ml): 1.103 ± 0.045
- Absorbancy (K562; 10 μg/ml): 1.086 ± 0.045
- cytotoxicity at 72 h ([3]; 0.1 μg/ml): 0.7%
- cytotoxicity at 72 h ([3]; 1 μg/ml): 2.9%
- cytotoxicity at 72 h ([3]; 10 μg/ml): 4.4%
- Body weight 9 days after immunization [4, 8]: 29.0 ± 1.7 g
- Cytotoxic T cell activity [4, 8]: 724 ± 202 LU/spleen
- Cytotoxic T cell activity, suppression [4, 8]: 28.5%
- Number of spleen cells [4, 8]: 3.2 ± 0.5 × 10^8 cell
- Body weight 9 days after immunization [4, 9]: 28.5 ± 1.0 g
- Cytotoxic T cell activity [4, 9]: 536 ± 272 LU/spleen
- Cytotoxic T cell activity, suppression [4, 9]: 47.0%
- Number of spleen cells [4, 9]: 2.6 ± 0.6 × 10^8 cell
- Body weight 9 days after immunization ([4]; 0.1 mg/kg/day ip × 5, Table 9A): 28.3 ± 1.4 g
- Cytotoxic T cell activity ([4]; 0.1 mg/kg/day ip × 5, Table 9A): 527 ± 172 LU/spleen
- Cytotoxic T cell activity, suppression ([4]; 0.1 mg/kg/day ip × 5, Table 9A): 47.9%
- Number of spleen cells ([4]; 0.1 mg/kg/day ip × 5, Table 9A): 2.8 ± 0.5 × 10^8 cell
- Body weight 9 days after immunization ([4]; 0.3 mg/kg/day ip × 5, Table 9A): 29.0 ± 1.8 g
- Cytotoxic T cell activity ([4]; 0.3 mg/kg/day ip × 5, Table 9A): 525 ± 58 LU/spleen
- Cytotoxic T cell activity, suppression ([4]; 0.3 mg/kg/day ip × 5, Table 9A): 48.1%
- Number of spleen cells ([4]; 0.3 mg/kg/day ip × 5, Table 9A): 3.1 ± 0.5 × 10^8 cell
- Body weight 9 days after immunization ([4]; 0.3 mg/kg/day po × 5, Table 9B): 28.0 ± 0.7 g
- Cytotoxic T cell activity ([4]; 0.3 mg/kg/day po × 5, Table 9B): 323 ± 97 LU/spleen
- Cytotoxic T cell activity, suppression ([4]; 0.3 mg/kg/day po × 5, Table 9B): 65.0%
- Number of spleen cells ([4]; 0.3 mg/kg/day po × 5, Table 9B): 1.4 ± 0.2 × 10^8
- Body weight 9 days after immunization ([4]; 1 mg/kg/day ip × 5, Table 9A): 27.3 ± 1.9 g
- Cytotoxic T cell activity ([4]; 1 mg/kg/day ip × 5, Table 9A): 318 ± 128 LU/spleen
- Cytotoxic T cell activity, suppression ([4]; 1 mg/kg/day ip × 5, Table 9A): 68.6%
- Number of spleen cells ([4]; 1 mg/kg/day ip × 5, Table 9A): 3.2 ± 0.6 × 10^8 cell
- Body weight 9 days after immunization ([4]; 1 mg/kg/day po × 5, Table 9B): 29.0 ± 1.7 g
- Cytotoxic T cell activity ([4]; 1 mg/kg/day po × 5, Table 9B): 473 ± 92 LU/spleen
- Cytotoxic T cell activity, suppression ([4]; 1 mg/kg/day po × 5, Table 9B): 48.7%
- Number of spleen cells ([4]; 1 mg/kg/day po × 5, Table 9B): 1.4 ± 0.3 × 10^8
- Body weight 9 days after immunization ([4]; 3 mg/kg/day ip × 5, Table 9A): 28.6 ± 1.7 g
- Cytotoxic T cell activity ([4]; 3 mg/kg/day ip × 5, Table 9A): < 50 LU/spleen
- Cytotoxic T cell activity, suppression ([4]; 3 mg/kg/day ip × 5, Table 9A): 95.1%
- Number of spleen cells ([4]; 3 mg/kg/day ip × 5, Table 9A): 2.7 ± 0.4 × 10^8 cell
- Body weight 9 days after immunization ([4]; 3 mg/kg/day po × 5, Table 9B): 29.4 ± 1.5 g
- Cytotoxic T cell activity ([4]; 3 mg/kg/day po × 5, Table 9B): 427 ± 100 LU/spleen
- Cytotoxic T cell activity, suppression ([4]; 3 mg/kg/day po × 5, Table 9B): 53.7%
- Number of spleen cells ([4]; 3 mg/kg/day po × 5, Table 9B): 2.0 ± 0.3 × 10^8
- Body weight 9 days after immunization ([4]; 10 mg/kg/day po × 5, Table 9B): 27.4 ± 1.7 g
- Cytotoxic T cell activity ([4]; 10 mg/kg/day po × 5, Table 9B): 274 ± 82 LU/spleen
- Cytotoxic T cell activity, suppression ([4]; 10 mg/kg/day po × 5, Table 9B): 70.3%
- Number of spleen cells ([4]; 10 mg/kg/day po × 5, Table 9B): 1.6 ± 0.3 × 10^8
- induction of allo-reactive cytotoxic T cells (in words) ([4]; 5 times intraperitoneal or oral): strongly suppresses the induction of allo-reactive cytotoxic T cells
- cytotoxicity at 72 h ([5]; 0.1 μg/ml): 7%
- cytotoxicity at 72 h ([5]; 1 μg/ml): 1.6%
- cytotoxicity at 72 h ([5]; 10 μg/ml): 3.3%
- Cytotoxic activity ([6]; 0.001 μg/ml, BALB/c responder): 16.0 LU/10^6
- Cytotoxic activity ([6]; 0.01 μg/ml, BALB/c responder): 13.0 LU/10^6
- Cytotoxic activity ([6]; 0.1 μg/ml, BALB/c responder): < 1.0 LU/10^6
- Cytotoxic activity ([6]; 1 μg/ml, BALB/c responder): < 1.0 LU/10^6
- inhibition at 0.001 µg/mL ([6]; Mus musculus, T-cell, 144 h, 0.001 μg/ml, BALB/c responder): 18.4%
- inhibition at 0.01 µg/mL ([6]; Mus musculus, T-cell, 144 h, 0.01 μg/ml, BALB/c responder): 33.6%
- inhibition at 0.1 µg/mL ([6]; Mus musculus, T-cell, 144 h, 0.1 μg/ml, BALB/c responder): > 95%
- inhibition at 1 µg/mL ([6]; Mus musculus, T-cell, 144 h, 1 μg/ml, BALB/c responder): > 95%
- induction of the allo-reactive cytotoxic T cell (in words), BALB/c responder ([6]; Table 3A): markedly inhibited
- Absorbancy (U937; 0.1 μg/ml): 0.669 ± 0.030
- Absorbancy (U937; 1 μg/ml): 0.681 ± 0.009
- Absorbancy (U937; 10 μg/ml): 0.673 ± 0.111
- cytotoxicity at 72 h ([7]; 1 μg/ml): 0.1%
- cytotoxicity at 72 h ([7]; 10 μg/ml): 1.3%
- cytotoxicity at 72 h ([7]; 0.1 μg/ml): 1.9%

From patent publication US5068247A, “2-aminopentanoic acid compounds and their use as immunosuppressants” (priority 1989, dated 1991)
